Results on 35 compounds are retold here after PubChem BioAssay (NCI).

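How tested: cells in 96-well plates exposed to compound for 48 hours at five concentrations. GI50 is the concentration that inhibits growth by half. The concentration for full growth arrest is given as TGI.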 Bounds are passed on as bounds.

Assay in all cases: NCI tumour cell line growth inhibition, 48 h
Test [1] has as its system HOP-92 NSCLC.
The test system of test [2] is HCC-2998 colon.
The subject of test [3] is MOLT-4 leukemia.
Test [4] relates to SK-MEL-2 melanoma.
Test [5] concerns 786-0 renal.
Test [6] relates to CAKI-1 renal.
Test [7] deals with SK-OV-3 ovarian.
The test system of test [8] is DU-145 prostate.
Test [9] has as its system HS 578T breast.
Test [10] relates to PC-3 prostate.

Consider `COc1cc(C2C(C(=O)Nc3ccccc3)=C(C)NC(C)=C2C(=O)Nc2ccccc2)ccc1O`, for which the TGI was 88.5 µM in [1]; > 100 µM in [2]; > 100 µM in [3]; 76.8 µM in [4]; > 100 µM in test [5].
`O=c1[nH]c(=S)[nH]c(O)c1/C=C1\C=CC=N1`: the TGI amounted to 36.1 µM in test [1]; 25 µM in [2]; 25.6 µM in [6]; 44.3 µM in test [3]; 51.4 µM in [4]; 24.8 µM in [5]. The TGI in test [7] was > 100 µM.
Turning to `CCNCC(O)c1ccc(N)c([N+](=O)[O-])c1` (stereo not given), the TGI in test [8], in [9], in test [6], in [3], in [4] and in test [5] was > 100 µM each time. The TGI in test [10] and in test [7] was > 100 µM throughout.
In the case of `O=[N+]([O-])c1ccccc1C1N2CCCCC2[C@@H]2c3[nH]c4ccccc4c3CCN12` (stereo not given in full), the TGI in test [1] is 29.2 µM; in test [6], 29.9 µM; in test [3], 28.1 µM; in test [4], 26.5 µM; in test [5], 29.7 µM; in test [7] it was 54.3 µM.
In the case of `Fc1ccccc1C1CC(C(c2ccccc2)c2ccccc2)=Nc2ccccc2S1` (stereo not given), the TGI was 17.6 µM in test [2]; 20.1 µM in [6]; 11 µM in test [3]; 21.6 µM in test [4]; 16.2 µM in test [5]; 68.6 µM in [7].
On to `O=[N+]([O-])c1ccc(Cl)c(C2SCc3nc4ccccc4n32)c1` (stereo not given), for which the TGI in test [1] is 45.3 µM; in [2], > 100 µM; in test [6] it was 76.1 µM; in test [3], > 100 µM; in [4], > 100 µM; in test [5], > 100 µM. The compound further showed a TGI in test [7] of 88 µM.
With `COc1ccc2c(c1)CC[C@@H]1C2CC[C@]2(C)C(=O)NC(=O)CC12` (stereo not given in full), the TGI in [1], in [2], in [6], in [3], in test [4] and in test [5] was > 100 µM throughout. Moreover, the TGI in test [7] was > 100 µM.
With `COc1ccc(NC(=O)c2cc(OC)c(OC)c(OC)c2)cc1O`, the GI50 in test [8] was 3.96 µM; in test [1], 0.861 µM; in test [2], 14.6 µM; in test [3] it was 3.42 µM; in [4], 2.58 µM; in [5] it was 45.7 µM. The values for the GI50 in test [10] and in test [7] were 2.52 µM and 4.95 µM, respectively. The TGI in [8], in test [1], in [2], in test [3], in [4] and in [5] was > 100 µM throughout. Moreover, the TGI in [10] and in [7] was > 100 µM in each case.
With `CCc1cccc(C)c1NC(=O)NS(=O)(=O)c1ccc(C)cc1`, the TGI in test [1], in test [2], in test [6], in test [3], in test [4] and in test [5] was > 100 µM each time. Besides, the TGI in test [7] was > 100 µM.
Take `Cc1cc(C)nc(NS(=O)(=O)c2ccc(NC(=O)c3cccc4cc5ccccc5nc34)cc2)n1`: the TGI in test [6] was > 100 µM; in [3], > 100 µM; in [4], 85.6 µM; in [5] it was > 100 µM; in test [7] it was > 100 µM.
As to `CC1(C)OCN(c2ccc(Cl)cc2)Cn2c1nc1ccccc12`, the TGI in test [8] is > 100 µM; in [1] it was > 100 µM; in [2] it was > 80.9 µM; in test [3], > 100 µM; in test [4], > 100 µM; in test [5], > 100 µM. Moreover, the TGI in [10] and in test [7] was > 100 µM each time.
Turning to `Cc1cc(C)c(C(=O)OC(c2ccccc2)C(c2ccccc2)N2CCOCC2)c(C)c1` (stereo not given), the TGI in test [2], in [6], in test [3], in test [4], in test [5] and in [7] was > 100 µM in each case.
As to `CN(O)C(=O)Cc1ccccc1`, the TGI in [1], in test [2], in [6], in test [3], in test [5] and in test [7] was > 100 µM each time.
As to `C[Si](C)(C)/C=C/CN1C(=O)CCC1O` (stereo not given), the TGI in [1], in test [2], in test [6], in test [3], in test [4] and in test [5] was > 100 µM throughout. Also, the TGI in [7] is > 100 µM.
For the compound `COc1ccc(O)c2c1C(=O)CCCC2=O`, the TGI in [2], in test [6], in [3], in [4], in test [5] and in [7] was > 100 µM in each case.
For the compound `CCOC(=O)C(C[Si](C)(C)C)P(=O)(OCC)OCC` (stereo not given), the TGI in test [1], in test [2], in test [6], in [3], in test [5] and in test [7] was > 100 µM each time.
As to `CC1OC(O)C(O)C(O)C1O` (stereo not given), the TGI in test [8], in [1], in test [9], in test [6], in test [4] and in [5] was > 100 µM throughout. For the same compound, the TGI in test [10] and in test [7] was > 100 µM each time.
Regarding `CCC1(CN(C)C)CC/C(=C\c2ccc3c(c2)OCO3)C1=O` (stereo not given), the TGI in test [1], in test [2], in test [6], in test [3], in test [4] and in test [5] was > 100 µM each time.
With `O=C1C2=C(c3ccccc31)C(c1ccccc1Cl)N1C(=O)CSC1=N2` (stereo not given), the TGI in test [1], in test [2], in test [6], in test [3], in test [4] and in test [5] was > 100 µM throughout. In test [7], the TGI was > 100 µM.
On to `COc1cc(Br)c(CC2=NCCc3cc(OC)c(OC)cc32)cc1OC`, for which the TGI was 60.3 µM in test [1]; 43.4 µM in test [2]; > 100 µM in test [6]; 72.5 µM in [3]; > 100 µM in test [4]; > 100 µM in [5]. The TGI in test [7] is > 100 µM.
In the case of `CCS/C(Nc1ccccc1)=C(\C#N)C(=O)Nc1ccc(OC)cc1`, the GI50 in test [8] was 3.48 µM; in test [2], 6.56 µM; in [9] it was 4.07 µM; in [6], 3.39 µM; in test [3] it was 2.61 µM; in test [4], 3.01 µM. Further, the values for the GI50 in test [5] and in test [7] were 4.14 µM and 3.28 µM, respectively. In addition, the TGI was 49.8 µM in test [8]; > 100 µM in test [2]; > 100 µM in test [9]; > 100 µM in test [6]; > 100 µM in [3]; > 100 µM in test [4]. Also, the TGI is > 100 µM in test [5] and 50.2 µM in test [7].
As for `COc1cc2c(cc1C)n(O)c(C)c(C(=O)C/C(=N/NC(=O)C[N+](C)(C)C)C(=O)Nc1cccc(Cl)c1C)[n+]2=O`, the TGI in test [1], in [2], in test [6], in [3], in test [4] and in test [5] was > 100 µM each time.
As to `COc1ccccc1/C=C\c1cc(OC)c(OC)c(OC)c1`, the TGI in test [1] is 81.6 µM; in [6], > 100 µM; in test [3] it was 98.6 µM; in test [5], > 100 µM.
In the case of `Cc1ccc(Nc2ccc(Nc3ccc(C)cc3)c3c2C(=O)c2c(O)ccc(O)c2C3=O)cc1`, the TGI in test [1], in test [2], in [6], in test [3], in test [4] and in test [5] was > 100 µM each time. The TGI in [7] was > 100 µM.
With `CCOC(=O)C12CC1(C(=O)OCC)C1CCC2C1` (stereo not given), the TGI is 95.2 µM in test [1]; > 100 µM in [2]; > 100 µM in [6]; > 100 µM in test [3]; > 100 µM in [5]; > 100 µM in test [7].
On to `COc1ccc(C(=O)C=C2NCCN2)cc1`, for which the TGI in test [1], in test [2], in test [6], in test [3], in test [4] and in test [5] was > 100 µM throughout. Besides, the TGI in [7] was > 100 µM.
For the compound `O=Cc1coc2ccccc2c1=O`, the TGI in test [8] is > 100 µM; in test [9], 53.4 µM; in test [6], 52.9 µM; in test [3], 96.1 µM; in test [5] it was 37.9 µM; in test [10] it was 53.7 µM. This compound registered a TGI in [7] of 50.9 µM.
Take `Cc1ccc(NC(=O)C(=O)Cc2nc3ccccc3o2)c(C)c1`: the TGI in [1], in test [2], in test [6], in test [4], in test [5] and in [7] was > 100 µM each time.
For the compound `Cc1ccc(N2C(=O)/C(=C3\Sc4c(nc(C)[nH]c4=O)N3c3ccccc3)SC2=S)cc1`, the TGI in [1] is 97.3 µM; in test [6], > 100 µM; in test [4], > 100 µM; in [5], 25.3 µM; in test [7] it was 53.5 µM.
Regarding `CCOC(=O)C(C)(C)Oc1ccc2c(-c3ccc(Cl)cc3)cc(=O)oc2c1`, the TGI in test [2], in [3], in test [4] and in test [5] was > 100 µM each time.
Turning to `CC[C@@H]1OC2(C)CC(S(=O)(=O)c3ccccc3)CC1O2` (stereo not given in full), the TGI in [1], in test [2], in [6], in test [3], in test [4] and in test [5] was > 100 µM throughout. Moreover, the TGI in test [7] was > 100 µM.
Turning to `CC(=O)/C(C)=N/N/C(N)=N\S(=O)(=O)c1cc(C(=O)Nc2ccccc2)c(Cl)cc1SCc1ccccc1`, the GI50 in test [8] was 3.5 µM; in test [9] it was > 100 µM; in [6] it was > 100 µM; in test [3] it was 3.73 µM; in test [4], 43.5 µM; in test [5], 0.766 µM. Moreover, the GI50 in test [10] and in test [7] was > 100 µM throughout. Further, the TGI is > 100 µM in test [8]; > 100 µM in test [9]; > 100 µM in test [6]; 56.3 µM in test [3]; > 100 µM in test [4]; > 100 µM in test [5]. Further, the TGI in [10] and in test [7] was > 100 µM throughout.
On to `O=C1C(c2ccccc2)=C(c2ccccc2)C(c2ccc(CCCCCCc3ccc(C4=C(c5ccccc5)C(=O)C(c5ccccc5)=C4c4ccccc4)cc3)cc2)=C1c1ccccc1`, for which the TGI in test [1], in [2], in [3], in test [4] and in test [5] was > 100 µM in each case.
`COC1=C(OC)CCC(/C(C#N)=C/c2ccc(OC)c(OC)c2)=C1`: the TGI in test [1], in test [2], in test [6], in test [3], in test [4] and in [5] was > 100 µM throughout. The compound also displayed a TGI in test [7] of 91.3 µM.
As for `COc1ccc(C2S/C(=C\c3ccc(OC)cc3OC)C(=O)N2NC(=O)Cc2ccccc2)cc1` (stereo not given), the TGI in test [1], in test [6], in [3], in test [4], in [5] and in [7] was > 100 µM in each case.
